Source: patent publication US9540323B2 (BRISTOL-MYERS SQUIBB COMPANY, priority 2012, dated 2017)
Where a name gives a salt, the structure may show the parent alone. Read-outs that look alike come from different tables or passages of the source.

Experiments:
[1] = target: cloned human P2Y1 receptors (Homo sapiens (Human), UniProt P47900); experiment: Binding Assay B - Scintillation Proximity Assay (SPA) for P2Y1 binding, [33P] 2MeS-ADP; conditions: read-out: P2Y1 Ki (nM) using binding assay B
Description: Binding Assay B—Scintillation Proximity Assay (SPA) for P2Y1 Binding
A SPA membrane binding assay was used to identify inhibitors of [^33P] […] Reactions were allowed to proceed to completion at room temperature for 1 hour followed by centrifugation of the plate for 5 min. About 40 μL of the aqueous solution was aspirated. Plates were sealed and the [^33P]

[2] = system: human platelet rich plasma (PRP); experiment: ADP induced platelet aggregation assay; conditions: Homo sapiens, Platelet, 5 min, read-out: PA IC50 (μM) @ 10 μM ADP, human PRP, 10 μM ADP, AUC at 5 minute
[3] = SPA, 0.3 nM [33P] 2MeS-ADP, Cheng-Prusoff

cloned human P2Y1 receptors, sequence (P47900 whole entry): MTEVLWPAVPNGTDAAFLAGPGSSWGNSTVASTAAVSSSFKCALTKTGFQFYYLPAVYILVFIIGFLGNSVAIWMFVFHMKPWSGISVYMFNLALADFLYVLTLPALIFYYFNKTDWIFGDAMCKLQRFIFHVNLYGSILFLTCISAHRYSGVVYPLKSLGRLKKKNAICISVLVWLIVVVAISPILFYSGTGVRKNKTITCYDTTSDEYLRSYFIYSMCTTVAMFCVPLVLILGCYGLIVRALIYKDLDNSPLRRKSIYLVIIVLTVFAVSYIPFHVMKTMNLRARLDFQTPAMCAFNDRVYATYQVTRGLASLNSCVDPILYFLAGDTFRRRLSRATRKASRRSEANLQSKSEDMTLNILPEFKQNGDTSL

SMILES	Ki [1, 3] [nM]	IC50 [2] [µM]	Ki [1] [nM]
CC(C)(C)CN1CCC(c2ccc(NC(=O)Nc3ccccc3N3CC(C)(C)c4c(-c5ccc(Cl)cc5)c(F)cc(O)c43)cc2)CC1 [Example 240, 1-(2-(4-(4-Chlorophenyl)-5-fluoro-7-hydroxy-3,3-dimethylindolin-1-yl)phenyl)-3-(4-(1-neopentylpiperidin-4-yl)phenyl)urea]	13.7	0.31	–
CC1(C)CN(c2ccccc2NC(=O)Nc2nc3ccc(F)nc3s2)c2c(O)cc(F)c(-c3nc4cc(Cl)ccc4s3)c21 [Example 157, 1-(2-(4-(5-Chlorobenzo[d]thiazol-2-yl)-5-fluoro-7-hydroxy-3,3-dimethylindolin-1-yl)phenyl)-3-(5-fluorothiazolo[5,4-b]pyridin-2-yl)urea]	18.7	0.28	–
CC1(C)CN(c2ccccc2NC(=O)Nc2nc3ccc(F)cc3s2)c2c(O)ccc(-c3nc4ccc(F)cc4o3)c21 [Example 101, 1-(2-(4-(6-Fluorobenzo[d]oxazol-2-yl)-7-hydroxy-3,3-dimethylindolin-1-yl)phenyl)-3-(6-fluorobenzo[d]thiazol-2-yl)urea]	31.9	0.67	–
CC1(C)CN(c2cc(F)ccc2NC(=O)Nc2ccc(F)cc2F)c2c(O)ccc(C(F)(F)F)c21 [Example 59, 1-(2,4-Difluorophenyl)-3-(4-fluoro-2-(7-hydroxy-3,3-dimethyl-4-(trifluoromethyl)indolin-1-yl)phenyl)urea]	5.7	0.24	–
COc1ccc2nc(NC(=O)Nc3ccccc3N3CC(C)(C)c4c(-c5nc6ccc(Cl)cc6o5)ccc(O)c43)sc2n1 [Example 110, 1-(2-(4-(6-Chlorobenzo[d]oxazol-2-yl)-7-hydroxy-3,3-dimethylindolin-1-yl)phenyl)-3-(5-methoxythiazolo[5,4-b]pyridin-2-yl)urea]	15.4	0.31	–
CC1(C)CN(c2ccccc2NC(=O)Nc2nc3ccc(Cl)cc3s2)c2c(O)c(F)cc(Br)c21 [Example 66, 1-(2-(4-Bromo-6-fluoro-7-hydroxy-3,3-dimethylindolin-1-yl)phenyl)-3-(6-chlorobenzo[d]thiazol-2-yl)urea]	21.3	0.75	–
CC1(CC(F)(F)F)CN(c2ccccc2NC(=O)Nc2ccc(OC(F)(F)F)cc2)c2c(O)ccc(Cl)c21 (stereo not drawn) [Example 78, 1-(2-(4-Chloro-7-hydroxy-3-methyl-3-(2,2,2-trifluoroethyl)indolin-1-yl)phenyl)-3-(4-(trifluoromethoxy)phenyl)urea]	7.7	2.92	–
CC(C)(C)c1ccc(-c2c(F)cc(O)c3c2C(C)(C)CN3c2ccccc2NC(=O)Nc2ccc(OC(F)(F)F)cc2)cc1 [Example 241, 1-(2-(4-(4-(tert-Butyl)phenyl)-5-fluoro-7-hydroxy-3,3-dimethylindolin-1-yl)phenyl)-3-(4-(trifluoromethoxy)phenyl)urea]	33.3	0.15	–
CC1(C)CN(c2ccccc2NC(=O)Nc2ccc(OC(F)(F)F)cc2)c2c(O)ccc(-c3cncc(F)c3)c21 [Example 117, 1-(2-(4-(5-Fluoropyridin-3-yl)-7-hydroxy-3,3-dimethylindolin-1-yl)phenyl)-3-(4-(trifluoromethoxy)phenyl) urea]	36	0.51	–
CC1(C)CN(c2ccccc2NC(=O)Nc2ccc(OC(F)(F)F)cc2)c2c(O)ccc(-c3ccncc3Cl)c21 [Example 114, 1-(2-(4-(3-Chloropyridin-4-yl)-7-hydroxy-3,3-dimethylindolin-1-yl)phenyl)-3-(4-(trifluoromethoxy)phenyl) urea]	26.5	0.53	–
CC1(C)CN(c2ccccc2NC(=O)Nc2csc(C(F)(F)F)n2)c2c(O)cc(F)c(-c3ccc(F)cc3)c21 [Example 228, 1-(2-(5-Fluoro-4-(4-fluorophenyl)-7-hydroxy-3,3-dimethylindolin-1-yl)phenyl)-3-(2-(trifluoromethyl)thiazol-4-yl)urea]	13.6	0.3	–
CC1(C)CN(c2ccccc2NC(=O)Nc2nc3ccc(F)cc3s2)c2c(O)cc(F)c(-c3nc4ccc(F)cc4s3)c21 [Example 146, 1-(2-(5-Fluoro-4-(6-fluorobenzo[d]thiazol-2-yl)-7-hydroxy-3,3-dimethylindolin-1-yl)phenyl)-3-(6-fluorobenzo[d]thiazol-2-yl)urea]	47.2	0.3	–
CCC1(CC)CN(c2ccccc2NC(=O)Nc2ccc(OC(F)(F)F)cc2)c2c(O)ccc(C#N)c21 [Example 43, 1-(2-(3,3-Diethyl-4-cyano-7-hydroxyindolin-1-yl)phenyl)-3-(4-(trifluoromethoxy)phenyl)urea]	7.8	0.47	–
CC1(C)CN(c2ccccc2NC(=O)Nc2ccc(OC(F)(F)F)cc2)c2c(O)ccc(-c3cc(F)nc(F)c3)c21 [Example 111, 1-(2-(4-(2,6-Difluoropyridin-4-yl)-7-hydroxy-3,3-dimethylindolin-1-yl)phenyl)-3-(4-(trifluoromethoxy)phenyl)urea, TFA]	7.5	0.14	–
CC1(C)CN(c2cccc(F)c2NC(=O)Nc2ccc(F)cc2F)c2c(O)ccc(C(F)(F)F)c21 [Example 61, 1-(2,4-Difluorophenyl)-3-(2-fluoro-6-(7-hydroxy-3,3-dimethyl-4-(trifluoromethyl)indolin-1-yl)phenyl)urea]	5.2	0.54	–
CCOC(=O)C1(C)CN(c2ccccc2NC(=O)Nc2ccc(OC(F)(F)F)cc2)c2c(O)ccc(Cl)c21 (stereo not drawn) [Example 74, Ethyl 4-chloro-7-hydroxy-3-methyl-1-(2-(3-(4-(trifluoromethoxy)phenyl)ureido)phenyl)indoline-3-carboxylate]	19.8	3.11	–
CC1(C)CN(c2ccccc2NC(=O)Nc2ccc(OC(F)(F)F)cc2)c2c(O)ccc(-c3ccccc3)c21 [Example 195, 1-(2-(7-Hydroxy-3,3-dimethyl-4-phenylindolin-1-yl)phenyl)-3-(4-(trifluoromethoxy)phenyl)urea]	9	0.18	–
CC1(C)CN(c2ccccc2NC(=O)Nc2csc(Cl)n2)c2c(O)cc(F)c(-c3ccc(Cl)cc3)c21 [Example 215, 1-(2-(4-(4-Chlorophenyl)-5-fluoro-7-hydroxy-3,3-dimethylindolin-1-yl)phenyl)-3-(2-chlorothiazol-4-yl)urea]	15	0.14	–
Cn1c(-c2ccc(O)c3c2C(C)(C)CN3c2ccccc2NC(=O)Nc2ccc(OC(F)(F)F)cc2)nc2ccccc21 [Example 88, 1-(2-(7-Hydroxy-3,3-dimethyl-4-(1-methyl-1H-benzo[d]imidazol-2-yl)indolin-1-yl)phenyl)-3-(4-(trifluoromethoxy)phenyl)urea]	39.7	4.15	–
CC1(C)CN(c2ccccc2NC(=O)Nc2nc3ccc(F)cc3s2)c2c(O)cc(F)c(-c3cc(C(F)(F)F)no3)c21 [Example 264, 1-(2-(5-Fluoro-7-hydroxy-3,3-dimethyl-4-(3-(trifluoromethyl)isoxazol-5-yl)indolin-1-yl)phenyl)-3-(6-fluorobenzo[d]thiazol-2-yl)urea]	–	0.62	18.2
CC(C)(C)CN1CCCC1c1ccc(NC(=O)Nc2ccccc2N2CC(C)(C)c3c(-c4ccc(F)cc4)ccc(O)c32)cc1 (stereo not drawn) [Example 202, 1-(2-(4-(4-Fluorophenyl)-7-hydroxy-3,3-dimethylindolin-1-yl)phenyl)-3-(4-(1-neopentylpyrrolidin-2-yl)phenyl)urea]	5.7	0.09	–
CC1(C)CN(c2ccccc2NC(=O)Nc2ccc(OC(F)(F)F)cc2)c2c(O)cc(F)c(-c3noc(C(F)(F)F)n3)c21 [Example 276, 1-(2-(5-Fluoro-7-hydroxy-3,3-dimethyl-4-(5-(trifluoromethyl)-1,2,4-oxadiazol-3-yl)indolin-1-yl)phenyl)-3-(4-(trifluoromethoxy)phenyl)urea]	48.7	0.64	–
CC1(C)CN(c2ccccc2NC(=O)Nc2ccc(OC(F)(F)F)cc2)c2c(O)cc(F)c(-c3ccc(Cl)cc3F)c21 [Example 236, 1-(2-(4-(4-Chloro-2-fluorophenyl)-5-fluoro-7-hydroxy-3,3-dimethylindolin-1-yl)phenyl)-3-(4-(trifluoromethoxy)phenyl)urea]	17	0.23	–
CC1(C)CN(c2ccccc2NC(=O)Nc2nc3ccc(Cl)cc3s2)c2c(O)cc(F)c(Br)c21 [Example 70, 1-(2-(4-Bromo-5-fluoro-7-hydroxy-3,3-dimethylindolin-1-yl)phenyl)-3-(6-chlorobenzo[d]thiazol-2-yl)urea]	31.3	0.78	–
CC1(C)CN(c2ccccc2NC(=O)Nc2ccc(OC(F)(F)F)cc2)c2c(O)ccc(C3=NC(C(C)(C)C)CO3)c21 (stereo not drawn) [Example 104, 1-(2-(4-(4-tert-Butyl-4,5-dihydrooxazol-2-yl)-7-hydroxy-3,3-dimethylindolin-1-yl)phenyl)-3-(4-(trifluoromethoxy)phenyl)urea]	9.1	0.46	–
CCC1(CC)CN(c2ccccc2NC(=O)Nc2ccc(C3CCN(CC(C)(C)C)CC3)cc2)c2c1ccc(F)c2O [Example 37, 1-(2-(3,3-Diethyl-6-fluoro-7-hydroxyindolin-1-yl)phenyl)-3-(4-(1-neopentylpiperidin-4-yl)phenyl)urea]	8.7	0.89	–
Cc1nn(C)c(C)c1-c1c(F)cc(O)c2c1C(C)(C)CN2c1ccccc1NC(=O)Nc1ccc(OC(F)(F)F)cc1 [Example 187, 1-(2-(5-Fluoro-7-hydroxy-3,3-dimethyl-4-(1,3,5-trimethyl-1H-pyrazol-4-yl)indolin-1-yl)phenyl)-3-(4-(trifluoromethoxy)phenyl)urea]	19.2	1.07	–
